Laboratory results: patent publication US7897582B2, “Oligonucleotide compositions and methods for the modulation of the expression of B7 protein” (Isis Pharmaceuticals, Inc., priority 2003, dated 2011)
Strand notation (5' to 3'): a small letter for the sugar, then the base; units joined by * are phosphorothioate-linked, units joined directly phosphodiester-linked; [ ] holds rarer units or linkages, { } end groups; capitals alone tell only the bases. e = 2'-O-(2-methoxyethyl) (MOE); [5mC] = 5-methylcytosine; d = 2'-deoxy (DNA)

How the values were obtained:
Assay type in all cases: cell-based
[1] = system: human B7-1; assay: Cell surface expression of B7-1 in pcB7-1-transfected COS-7 cells by flow cytometry; settings: for % Surface Inhibition / % Surface Expression: COS-7 cells, B7-1 cell surface; for % Surface Expression: basal = 100%; for % B7-1 EXPRESSION: human B7 cell surface expression, Table 16
Experimental: The ability of oligonucleotides to inhibit B7-1 expression was evaluated by measuring the cell surface expression of B7-1 in transfected COS-7 cells by flow cytometry.
(§1) A T-175 flask was seeded at 75% confluency with COS-7 cells (ATCC accession No. CRL 1651). The plasmid pcB7-1 was introduced into cells by standard calcium phosphate transfection. Following a 4 hour transfection, the cells were trypsinized and seeded in 12-well dishes at 80% confluency. The cells were allowed to adhere to the plastic for 1 hour and were then washed with phosphate-buffered saline (PBS). OptiMEM™ (GIBCO-BRL, Gaithersburg, Md.) medium was added along with 15 μg/mL of Lipofectin™ (GIBCO-BRL, Gaithersburg, Md.) and oligonucleotide at the indicated concentrations. After four additional hours, the cells were washed with phosphate buffered saline (PBS) and incubated with fresh oligonucleotide at the same concentration in DMEM (Dulbecco et al., Virol., 1959, 8, 396; Smith et al., Virol., 1960, 12, 185) with 10% fetal calf sera (FCS).
(§2) In order to monitor the effects of oligonucleotides on cell surface expression of B7-1, treated COS-7 cells were harvested by brief trypsinization 24-48 hours after oligonucleotide treatment. The cells were washed with PBS, then resuspended in 100 μL of staining buffer (PBS, 0.2% BSA, 0.1% azide) with 5 μL conjugated anti-B7-1-antibody (i.e., anti-hCD80-FITC, Ancell, Bayport, Minn.; FITC: fluorescein isothiocyanate). The cells were stained for 30 minutes at 4° C., washed with PBS, resuspended in 300 μL containing 0.5% paraformaldehyde. Cells were harvested and the fluorescence profiles were determined using a flow cytometer.
(§3) B7 antisense oligonucleotides were tested for their effect on cell surface expression of both B7-1 and B7-2. Cell surface expression was measured as described in Example 1. Experiments were done for both human B7 and mouse B7.
The oligonucleotides were screened as described in Example 2 except that the concentration of oligonucleotide was varied as shown in Table 18.

[2] = system: human B7-2; assay: Cell surface expression of B7-2 in transfected COS-7 cells by flow cytometry; settings: human B7 cell surface expression; Table 16
Experimental: as §1, §2
In an initial screen, the ability of hB7-2 oligonucleotides to inhibit B7-2 expression was evaluated by measuring the cell surface expression of B7-2 in transfected COS-7 cells by flow cytometry. The methods used were similar to those given in Example 2, with the exceptions that (1) COS-7 cells were transfected with the plasmids pbcB7-2 or BBG-58, a human ICAM-1 (CD54) expression vector (R&D Systems, Minneapolis, Minn.) introduced into cells by standard calcium phosphate transfection, (2) the oligonucleotides used were those described in Table 2, and (3) a conjugated anti-B7-2 antibody (i.e., anti-hCD86-FITC or anti-CD86-PE, PharMingen, San Diego, Calif.; PE: phycoerythrin) was used during flow cytometry.
as §3
The oligonucleotides were screened as described in Example 2 except that the concentration of oligonucleotide was varied as shown in Table 19.

[3] = system: Human B7-1 mRNA; assay: Human B7-1 mRNA expression in COS-7 cells, screened as in Example 4

22316 (eG*e[5mC]*eT*e[5mC]*eA*d[5mC]*dG*dT*dA*dG*dA*dA*dG*dA*d[5mC]*e[5mC]*e[5mC]*eT*e[5mC]*e[5mC]; antisense) [compound 22316]
% Surface Inhibition ([1]; dose 10 nM): 26%
% Surface Expression ([1]; dose 10 nM): 74%
% Surface Inhibition ([1]; dose 30 nM): 26%
% Surface Expression ([1]; dose 30 nM): 74%
% Surface Inhibition ([1]; dose 100 nM): 53%
% Surface Expression ([1]; dose 100 nM): 47%
% Surface Inhibition ([1]; dose 300 nM): 66%
% Surface Expression ([1]; dose 300 nM): 34%
% B7-1 EXPRESSION [1]: 31%
% B7-2 EXPRESSION [2]: 100%
% mRNA EXPRESSION ([3]; 10 nM, COS-7, Table 8): 99%
% mRNA INHIBITION ([3]; 10 nM, COS-7, Table 8): 1%
% mRNA EXPRESSION ([3]; 30 nM, COS-7, Table 8): 73%
% mRNA INHIBITION ([3]; 30 nM, COS-7, Table 8): 27%
% mRNA EXPRESSION ([3]; 100 nM, COS-7, Table 8): 58%
% mRNA INHIBITION ([3]; 100 nM, COS-7, Table 8): 42%
% mRNA EXPRESSION ([3]; 300 nM, COS-7, Table 8): 33%
% mRNA INHIBITION ([3]; 300 nM, COS-7, Table 8): 67%
% mRNA EXPRESSION ([3]; human B7-1 mRNA, Table 7): 42%

22317 (eT*e[5mC]*e[5mC]*e[5mC]*eA*dG*dG*dT*dG*d[5mC]*dA*dA*dA*dA*d[5mC]*eA*eG*eG*e[5mC]*eA; antisense) [compound 22317]
% B7-1 EXPRESSION [1]: 28%
% B7-2 EXPRESSION [2]: 91%
% mRNA EXPRESSION ([3]; human B7-1 mRNA, Table 7): 43%

22337 (antisense eT*eG*eA*e[5mC]*eG*dG*dA*dG*dG*d[5mC]*dT*dA*d[5mC]*d[5mC]*dT*eT*e[5mC]*eA*eG*eA) [compound 22337]
% B7-1 EXPRESSION [1]: 48%
% B7-2 EXPRESSION [2]: 101%
% mRNA EXPRESSION ([3]; human B7-1 mRNA, Table 7): 42%

22325 (eG*e[5mC]*e[5mC]*eA*eG*dG*dA*dT*d[5mC]*dA*d[5mC]*dA*dA*dT*dG*eG*eA*eG*eA*eG) [compound 22325]
% B7-1 EXPRESSION [1]: 32%
% B7-2 EXPRESSION [2]: 89%
% mRNA EXPRESSION ([3]; human B7-1 mRNA, Table 7): 46%

22334 (antisense eA*eA*eG*e[5mC]*eA*dG*dT*dA*dG*dG*dT*d[5mC]*dA*dG*dG*e[5mC]*eA*eG*e[5mC]*eA) [compound 22334]
% B7-1 EXPRESSION [1]: 28%
% B7-2 EXPRESSION [2]: 92%
% mRNA EXPRESSION ([3]; human B7-1 mRNA, Table 7): 43%

22335 (antisense e[5mC]*e[5mC]*eT*eT*eG*d[5mC]*dT*dT*d[5mC]*dT*dG*d[5mC]*dG*dG*dA*e[5mC]*eA*e[5mC]*eT*eG) [compound 22335]
% Surface Inhibition ([1]; dose 10 nM): 19%
% Surface Expression ([1]; dose 10 nM): 81%
% Surface Inhibition ([1]; dose 30 nM): 31%
% Surface Expression ([1]; dose 30 nM): 69%
% Surface Inhibition ([1]; dose 100 nM): 53%
% Surface Expression ([1]; dose 100 nM): 47%
% Surface Inhibition ([1]; dose 300 nM): 62%
% Surface Expression ([1]; dose 300 nM): 38%
% B7-1 EXPRESSION [1]: 23%
% B7-2 EXPRESSION [2]: 95%
% mRNA EXPRESSION ([3]; 10 nM, COS-7, Table 8): 81%
% mRNA INHIBITION ([3]; 10 nM, COS-7, Table 8): 19%
% mRNA EXPRESSION ([3]; 30 nM, COS-7, Table 8): 63%
% mRNA INHIBITION ([3]; 30 nM, COS-7, Table 8): 37%
% mRNA EXPRESSION ([3]; 100 nM, COS-7, Table 8): 43%
% mRNA INHIBITION ([3]; 100 nM, COS-7, Table 8): 57%
% mRNA EXPRESSION ([3]; 300 nM, COS-7, Table 8): 35%
% mRNA INHIBITION ([3]; 300 nM, COS-7, Table 8): 65%
% mRNA EXPRESSION ([3]; human B7-1 mRNA, Table 7): 43%
